Laboratory results from ChEMBL document CHEMBL1201862, “PubChem BioAssay data set” (2004).
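Results reflect a 48-hour exposure of cells in 96-well plates to compound at five concentrations. At the GI50, growth is halved.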 The source made the active and inactive calls. Cut-off read from the data, not from the text of the source: active = GI50 up to about 1.1 µM and inactive = higher.

What was measured:
Experiment in all cases: DTP human tumour cell line panel, 48 h
786-0 = system: 786-0
A549 = system: A549
ACHN = system: ACHN
CAKI-1 = system: CAKI-1
CCRF-CEM = system: CCRF-CEM
COLO 205 = system: COLO 205
DLD-1 = system: DLD-1
DMS-114 = system: DMS-114
DMS-273 = system: DMS-273
EKVX = system: EKVX
HCC 2998 = system: HCC 2998
HCT-116 = system: HCT-116
HCT-15 = system: HCT-15
HL-60 = system: HL-60
HOP-18 = system: HOP-18
HOP-62 = system: HOP-62
HOP-92 = system: HOP-92
HT-29 = system: HT-29
IGROV-1 = system: IGROV-1
K562 = system: K562
KM-20L2 = system: KM-20L2
KM12 = system: KM12
LOX IMVI = system: LOX IMVI
LXFL 529 = system: LXFL 529
M14 = system: M14
M19-MEL = system: M19-MEL
MOLT-4 = system: MOLT-4
Malme-3M = system: Malme-3M
NCI-H226 = system: NCI-H226
NCI-H23 = system: NCI-H23
NCI-H460 = system: NCI-H460
NCI-H522 = system: NCI-H522
OVCAR-3 = system: OVCAR-3
OVCAR-4 = system: OVCAR-4
OVCAR-5 = system: OVCAR-5
OVCAR-8 = system: OVCAR-8
RPMI-8226 = system: RPMI-8226
RXF 393 = system: RXF 393
SF-268 = system: SF-268
SF-295 = system: SF-295
SF-539 = system: SF-539
SK-MEL-28 = system: SK-MEL-28
SK-MEL-2 = system: SK-MEL-2
SK-MEL-5 = system: SK-MEL-5
SK-OV-3 = system: SK-OV-3
SN12C = system: SN12C
SNB-19 = system: SNB-19
SNB-75 = system: SNB-75
SNB-78 = system: SNB-78
SR = system: SR
SW-620 = system: SW-620
TK-10 = system: TK-10
U-251 = system: U-251
UACC-257 = system: UACC-257
UACC-62 = system: UACC-62
UO-31 = system: UO-31
XF498 = system: XF498

OC(c1ccccc1)(c1ccccc1)c1ccncc1 was tested. Which GI50 (786-0) did it give?
The GI50 was 66.1 µM (inactive).

And the GI50 (A549)?
Its GI50 is > 100 µM (inactive).

And the GI50 (ACHN)?
The GI50 was > 100 µM (inactive).

And the GI50 (CAKI-1)?
Its GI50 is > 100 µM (inactive).

What about the GI50 (CCRF-CEM) of the same molecule?
The GI50 was > 100 µM (inactive).

What about the GI50 (COLO 205) of the same molecule?
Its GI50 is > 100 µM (inactive).

What about the GI50 (DLD-1) of the same molecule?
Its GI50 is > 100 µM (inactive).

What about the GI50 (DMS-114) of the same molecule?
Its GI50 is > 100 µM (inactive).

What about the GI50 (DMS-273) of the same molecule?
Its GI50 is > 100 µM (inactive).

And the GI50 (EKVX)?
Its GI50 is > 100 µM (inactive).

What about the GI50 (HCC 2998) of the same molecule?
The GI50 was > 100 µM (inactive).

What about the GI50 (HCT-116) of the same molecule?
The GI50 was > 100 µM (inactive).

What about the GI50 (HCT-15) of the same molecule?
Its GI50 is greater than 100 µM.

And the GI50 (HL-60)?
The GI50 was > 100 µM (inactive).

And the GI50 (HOP-18)?
The GI50 was > 100 µM (inactive).

And the GI50 (HOP-62)?
Its GI50 is > 100 µM (inactive).

What about the GI50 (HOP-92) of the same molecule?
Its GI50 is 74 µM (inactive).

And the GI50 (HT-29)?
Its GI50 is > 100 µM (inactive).

And the GI50 (IGROV-1)?
Its GI50 is > 100 µM (inactive).

And the GI50 (K562)?
The GI50 was > 100 µM (inactive).

And the GI50 (KM-20L2)?
Its GI50 is > 100 µM (inactive).

And the GI50 (KM12)?
The GI50 was > 100 µM (inactive).

And the GI50 (LOX IMVI)?
Its GI50 is > 100 µM (inactive).

What about the GI50 (LXFL 529) of the same molecule?
Its GI50 is > 100 µM (inactive).

And the GI50 (M14)?
The GI50 was > 100 µM (inactive).

And the GI50 (M19-MEL)?
The GI50 was > 100 µM (inactive).

What about the GI50 (MOLT-4) of the same molecule?
Its GI50 is > 100 µM (inactive).

What about the GI50 (Malme-3M) of the same molecule?
The GI50 was > 100 µM (inactive).

What about the GI50 (NCI-H226) of the same molecule?
Its GI50 is > 100 µM (inactive).

And the GI50 (NCI-H23)?
Its GI50 is > 100 µM (inactive).

What about the GI50 (NCI-H460) of the same molecule?
The GI50 was > 100 µM (inactive).

And the GI50 (NCI-H522)?
Its GI50 is > 100 µM (inactive).

What about the GI50 (OVCAR-3) of the same molecule?
The GI50 was > 100 µM (inactive).

What about the GI50 (OVCAR-4) of the same molecule?
Its GI50 is > 100 µM (inactive).

And the GI50 (OVCAR-5)?
Its GI50 is > 100 µM (inactive).

And the GI50 (OVCAR-8)?
Its GI50 is > 100 µM (inactive).

And the GI50 (RPMI-8226)?
The GI50 was > 100 µM (inactive).

And the GI50 (RXF 393)?
Its GI50 is > 100 µM (inactive).

What about the GI50 (SF-268) of the same molecule?
Its GI50 is > 100 µM (inactive).

What about the GI50 (SF-295) of the same molecule?
Its GI50 is > 100 µM (inactive).

What about the GI50 (SF-539) of the same molecule?
The GI50 was 59.4 µM (inactive).

What about the GI50 (SK-MEL-28) of the same molecule?
Its GI50 is > 100 µM (inactive).

What about the GI50 (SK-MEL-2) of the same molecule?
Its GI50 is > 100 µM (inactive).

What about the GI50 (SK-MEL-5) of the same molecule?
Its GI50 is > 100 µM (inactive).

What about the GI50 (SK-OV-3) of the same molecule?
Its GI50 is > 100 µM (inactive).

And the GI50 (SN12C)?
The GI50 was > 100 µM (inactive).

And the GI50 (SNB-19)?
The GI50 was > 100 µM (inactive).

And the GI50 (SNB-75)?
The GI50 was 36.6 µM (inactive).

What about the GI50 (SNB-78) of the same molecule?
The GI50 was > 100 µM (inactive).

And the GI50 (SR)?
Its GI50 is > 100 µM (inactive).

And the GI50 (SW-620)?
Its GI50 is > 100 µM (inactive).

And the GI50 (TK-10)?
The GI50 was > 100 µM (inactive).

What about the GI50 (U-251) of the same molecule?
Its GI50 is > 100 µM (inactive).

What about the GI50 (UACC-257) of the same molecule?
Its GI50 is > 100 µM (inactive).

And the GI50 (UACC-62)?
The GI50 was > 100 µM (inactive).

What about the GI50 (UO-31) of the same molecule?
Its GI50 is > 100 µM (inactive).

What about the GI50 (XF498) of the same molecule?
Its GI50 is > 100 µM (inactive).
